Reference: PMC6268361, “Development and Validation of a Bioanalytical Method for Quantification of 2,6-Bis-(4-hydroxy-3-methoxybenzylidene)-cyclohexanone (BHMC) in Rat Plasma” (Molecules, 2012)

Legend:
[1] = set-up: method as in PMID 19110321, PMID 14997198, PMID 17400527, PMID 17999464; settings: cited from earlier work
[2] = test system: mouse model of inflammatory pain; set-up: method as in PMID 12609665; settings: cited from earlier work
lethal sepsis in mice = test system: lethal sepsis in mice; set-up: method as in PMID 21114991; settings: compared with curcumin; cited from earlier work
[3] = Pharmacokinetic study in rats after i.v. administration (HPLC-UV/VIS of plasma, non-compartmental analysis); format: in vivo, male Sprague Dawley rats; settings: i.v. 10 mg/kg
Method: Samples were analyzed with a Flexar HPLC system that consisted of a UV/VIS detector, a quaternary pump and a solvent manager with built-in degasser (PerkinElmer, Waltham, MA, USA). The separation was achieved using a Waters Symmetry C18 column (150 × 4.6 mm I.D.; 5 µm; Waters, Milford, MA, USA) protected by a Waters Symmetry C18 Guard Column (20 × 3.9 mm I.D.; 5 µm; Waters, Milford, MA, USA) at ambient temperature. The system’s pump delivered a constant flow of 1 mL/min. The volume of injection was 50 µL. BHMC and IS were eluted with a gradient method that gave an initial flow of 100% water for 1 min, changing linearly to 100% methanol in 11 min. Pure methanol was pumped continuously for 9 min. After this, 100% water was regained to stabilize the chromatographic system for 6 min. BHMC and IS were detected at a visible range of 380 nm. The analyses were repeated according to the gradient elution at every analytical cycle. The chromatograms were analyzed with Chromera Manager 2.1 (PerkinElmer, Waltham, MA, USA).
Plasma samples (200 µL) were pipetted into 1.5 mL microcentrifuge tubes. To each tube, deionized water (80 µL) was added and the tubes vortexed at medium speed for 20 s. Next, IS (62.5 µg/mL, 40 µL) was added and the mixtures vortexed again at medium speed for 20 s. A volume of 500 µL extraction reagent (95% ethyl acetate, 5% methanol) was loaded into each tube followed by a 60 s sonication and high speed vortexing for 60 s. The tubes were allowed to settle for 5 min followed by centrifugation at 13,500 g for 5 min at a temperature of 15 °C. After centrifugation the upper organic layer was carefully removed into another clean microcentrifuge tube. The organic layer was dried under a stream of nitrogen gas with a low heat setting. The dried extracted product was resuspended in 200 µL of a solution consisting of 10% methanol and 90% deionized water, sonicated for 60 s then vortexed at medium speed for 30 s. The tubes were left at room temperature in the dark for at least 10 min, followed by a repeat vortex mixing. The content was then filtered with 0.45 µm PTFE syringe filters (Titan, West Springfield, MA, USA) into a clean HPLC injection sample vial for HPLC assay.
Experiments was conducted on male Sprague Dawley rats (8–10 weeks old, 180–200 g) supplied by the Faculty of Veterinary Medicine, Universiti Putra Malaysia. All rats were housed at 23 ± 2 °C with 12 h of light/dark cycle with access to food and water ad libitum. They were acclimatized and habituated to the laboratory condition for at least one week prior to experimentation and were used only once throughout the experiments. All experimental protocols involving animals were performed in accordance with the current guidelines for the care of laboratory animals and the ethical guidelines for animal experimentation Animal Care and Use Committee (ACUC) as approved by the Animal Experimentation Ethics Committee of Universiti Putra Malaysia. Six rats were used. BHMC, solubilized in 5% ethanol (Thermo Fisher Scientific, Waltham, MA, USA), 5% Tween-20 (Sigma-Aldrich, St. Louis, MO, USA) and 90% deionized water, was injected intravenously to each rat at a dose of 10 mg/kg body weight. Blood samples (0.5 mL) were obtained from the tail vein at 5, 15, 30, 60, 120, 240, 480 and 720 min following BHMC administration. In order to prevent coagulation and enable plasma collection 1 µg of heparin sodium was added to each blood sample. Each sample was immediately centrifuged at 3,000 g for 10 min and the plasma was processed as described under sample preparation section. Pharmacokinetic parameters were estimated using non-compartmental pharmacokinetic analysis.

[4] = test system: cellular synthesis of nitric oxide and several proinflammatory cytokines; set-up: method as in PMID 19958764, PMID 21114991; settings: through inhibition of signaling pathways incl. phosphorylation of p38 MAPK; cited from earlier work
[5] = male, Sprague Dawley, rat, plasma, iv, n = 6, mean ± SD, non-compartmental analysis

SMILES	Bioavailability via oral administration [1]	Analgesic effect [2]	Reduction of mortality following severe sepsis (lethal sepsis in mice)	Time post-treatment up to which quantifiable in plasma of all rats ([3]; LOQ 0.02 µg/mL)	AUC(0-inf) [3, 5] [µg·h/mL]	AUC(0-t) [3, 5] [µg·h/mL]	clearance ([3]; male, Sprague Dawley, rat, plasma, iv, n = 6, mean ± SD, non-compartmental analysis, read-out: Cl (clearance)) [mL/min]	Cmax ([3]; male, Sprague Dawley, rat, plasma, iv, n = 6, mean ± SD, non-compartmental analysis, read-out: Cmax (maximum plasma concentration)) [µg/mL]	half-life ([3]; male, Sprague Dawley, rat, plasma, iv, n = 6, mean ± SD, non-compartmental analysis, read-out: T1/2 (half-life)) [h]	Vd ([3]; male, Sprague Dawley, rat, plasma, iv, n = 6, mean ± SD, non-compartmental analysis, read-out: Vd (volume of distribution)) [L]	Effect on cellular synthesis of nitric oxide and several proinflammatory cytokines [4]
COc1cc(C=CC(=O)CC(=O)C=Cc2ccc(O)c(OC)c2)ccc1O [Curcumin, 1,7-bis(4-hydroxy-3-methoxyphenyl)-1,6-heptadiene-3,5-dione]	low bioavailability										
COc1cc(C=C2CCCC(=Cc3ccc(O)c(OC)c3)C2=O)ccc1O [BHMC, 2,6-bis-(4-hydroxy-3-methoxybenzylidene)-cyclohexanone]		potential analgesic effect	superior to curcumin in reducing mortality	at least 8 h	0.989	0.937	5.3 ± 0.7	2.91 ± 0.15	1.5 ± 0.124	0.69 ± 0.038	significant inhibitory effects
